pIC50: −log10 of the molar value.
What was measured:
Conditions in all cases: average where tested multiple times
BCAT2 [1] = target: T1, BCAT2 (Homo sapiens, UniProt O15382); experiment: BCAT2 in vitro enzyme inhibition assay (resazurin/diaphorase-coupled fluorescence); type: biochemical
T1 sequence (O15382 28-392): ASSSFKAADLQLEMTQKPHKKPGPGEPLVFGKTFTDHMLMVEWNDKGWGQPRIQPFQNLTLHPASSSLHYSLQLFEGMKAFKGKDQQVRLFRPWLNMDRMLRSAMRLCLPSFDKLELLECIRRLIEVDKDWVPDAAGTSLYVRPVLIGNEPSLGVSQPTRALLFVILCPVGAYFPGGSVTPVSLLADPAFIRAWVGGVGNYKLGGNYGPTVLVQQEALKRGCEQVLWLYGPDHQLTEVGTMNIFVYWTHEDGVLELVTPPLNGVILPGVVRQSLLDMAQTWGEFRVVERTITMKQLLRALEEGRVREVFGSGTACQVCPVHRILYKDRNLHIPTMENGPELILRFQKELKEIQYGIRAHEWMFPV
Procedure, shortened: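 Coupled fluorescence readout: glutamate formed from L-leucine/α-ketoglutarate transamination drives GDH/NAD/diaphorase reduction of resazurin (Ex 540/Em 590). Human BCAT2 was first exposed 1 h at room temperature to compound, top final 100 μM in 3-fold, 10-point series; substrate reaction ran 1 h before SDS quench, in technical duplicate with DMSO max and enzyme-free min controls.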

hBCAT1 = target: T2, hBCAT1 (Homo sapiens, UniProt P54687); experiment: BCAT1 in vitro enzyme inhibition assay (resazurin/diaphorase-coupled fluorescence); type: biochemical
T2 sequence (P54687 1-386): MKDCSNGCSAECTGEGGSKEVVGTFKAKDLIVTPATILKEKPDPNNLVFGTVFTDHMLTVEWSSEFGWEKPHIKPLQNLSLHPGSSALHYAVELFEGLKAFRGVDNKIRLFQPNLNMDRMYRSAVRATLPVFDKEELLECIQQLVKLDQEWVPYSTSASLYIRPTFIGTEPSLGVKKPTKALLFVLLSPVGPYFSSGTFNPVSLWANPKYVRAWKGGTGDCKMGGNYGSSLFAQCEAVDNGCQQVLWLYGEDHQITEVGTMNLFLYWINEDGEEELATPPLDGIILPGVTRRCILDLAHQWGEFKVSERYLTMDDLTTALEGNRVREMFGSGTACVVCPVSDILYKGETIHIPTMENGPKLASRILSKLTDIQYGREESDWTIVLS
Procedure, shortened: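 Ten-point, 3-fold compound series (top final 100 μM, delivered 1:50 from 50× DMSO stocks) tested against hBCAT1. Inhibition detected via diaphorase-coupled resazurin fluorescence, duplicate wells, with values from repeated runs averaged.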

BCAT2 [2] = target: T1, BCAT2; experiment: BCAT2 in vitro cell inhibition using engineered A549 cells (KMV cell assay, 13C6-KMV by LC-MS/MS); type: cell-based; parameters: The result was an engineered A549 cell line that expressed endogenous BCAT2; endogenous in cells; host or cells: A549 cells with MUT and BCAT1 knocked out by CRISPR/CAS9; key to BCAT2 Cell Inhibition: A: less than or equal to 0.100 μM; B: greater than 0.100 and less than or equal to 0.500 μM; C: greater than 0.500 and less than or equal to 1.000 μM; d: greater than 1.000 μM; E: no fit

| Structure (SMILES) | pIC50 (BCAT2 [1]) | pIC50 (hBCAT1) | pIC50 (BCAT2 [2]) | BCAT2 Cell Inhibition (BCAT2 [2]) |
| --- | --- | --- | --- | --- |
| CC(C)Cc1nc2cnc(-c3ccn(C(F)F)n3)cc2n1[C@@H]1CCC[C@H](NC(=O)c2ncc(Cl)s2)[C@H]1O [Example 230, 5-chloro-N-((1S,2R,3R)-3-(6-(1-(difluoromethyl)-1H-pyrazol-3-yl)-2-isobutyl-1H-imidazo[4,5-c]pyridin-1-yl)-2-hydroxycyclohexyl)thiazole-2-carboxamide] | ≥ 7.00 | 6.00 to 6.30 | < 6.00 |  |
| CO[C@H]1C[C@H](NC(=O)c2ncc(Cl)s2)C[C@H](n2c(CC(C)C)nc3cnc(-c4ncccn4)cc32)C1 [Example 435, 5-chloro-N-((1R,3S,5S)-3-(2-isobutyl-6-(pyrimidin-2-yl)-1H-imidazo[4,5-c]pyridin-1-yl)-5-methoxycyclohexyl)thiazole-2-carboxamide] | ≥ 7.00 | > 6.30 | ≥ 7.00 |  |
| O=C(N[C@H]1CCC[C@@H](n2c(-c3ccccc3OC(F)F)nc3cnc(-c4nc[nH]n4)cc32)C1)c1ncc(Cl)s1 [Example 367, 5-chloro-N-((1S,3R)-3-(2-(2-(difluoromethoxy)phenyl)-6-(1H-1,2,4-triazol-3-yl)-1H-imidazo[4,5-c]pyridin-1-yl)cyclohexyl)thiazole-2-carboxamide] | ≥ 7.00 | > 6.30 |  | E |
| CC(C)Cc1nc2cnc(-n3nccn3)cc2n1[C@@H]1CCC[C@H](NC(=O)c2ncc(Cl)s2)C1 [Example 84, 5-chloro-N-((1S,3R)-3-(2-isobutyl-6-(2H-1,2,3-triazol-2-yl)-1H-imidazo[4,5-c]pyridin-1-yl)cyclohexyl)thiazole-2-carboxamide] | ≥ 7.00 | > 6.30 | ≥ 7.00 |  |
| N#Cc1cccc(-c2nc3cnc(-c4nc[nH]n4)cc3n2[C@@H]2CCC[C@H](NC(=O)c3ccc(Cl)s3)C2)c1F [Example 365, 5-chloro-N-((1S,3R)-3-(2-(3-cyano-2-fluorophenyl)-6-(1H-1,2,4-triazol-3-yl)-1H-imidazo[4,5-c]pyridin-1-yl)cyclohexyl)thiophene-2-carboxamide] | ≥ 7.00 | 5.30 to 6.00 | < 6.00 |  |
| Cc1cn[nH]c1-c1cc2c(cn1)nc(-c1ccccc1F)n2[C@@H]1CCC[C@H](NC(=O)c2ncc(Cl)s2)C1 [Example 186, 5-chloro-N-((1S,3R)-3-(2-(2-fluorophenyl)-6-(4-methyl-1H-pyrazol-5-yl)-1H-imidazo[4,5-c]pyridin-1-yl)cyclohexyl)thiazole-2-carboxamide] | ≥ 7.00 | > 6.30 | ≥ 7.00 |  |
| O=C(N[C@H]1C[C@H](O)C[C@@H](n2c(-c3ccccc3F)nc3cnccc32)C1)c1ncc(Cl)s1 [Example 272, 5-chloro-N-((1R,3S,5S)-3-(2-(2-fluorophenyl)-1H-imidazo[4,5-c]pyridin-1-yl)-5-hydroxycyclohexyl)thiazole-2-carboxamide] | ≥ 7.00 | 6.00 to 6.30 | 6.00 to 6.30 |  |
| O=C(N[C@H]1CCC[C@@H](n2c(-c3ccccc3F)nc3cnc(-c4ncco4)cc32)C1)c1ccc(Br)s1 [Example 7, 5-bromo-N-((1S,3R)-3-(2-(2-fluorophenyl)-6-(oxazol-2-yl)-1H-imidazo[4,5-c]pyridin-1-yl)cyclohexyl)thiophene-2-carboxamide] | ≥ 7.00 | > 6.30 | ≥ 7.00 |  |
| CC(C)Cc1nc2cnc(-c3ccc4ccoc4c3)cc2n1[C@@H]1CCC[C@H](NC(=O)c2ncc(Cl)s2)C1 [Example 319, N-((1S,3R)-3-(6-(benzofuran-6-yl)-2-isobutyl-1H-imidazo[4,5-c]pyridin-1-yl)cyclohexyl)-5-chlorothiazole-2-carboxamide] | 6.30 to 7.00 | 5.30 to 6.00 |  | E |
| O=C(N[C@H]1CCC[C@@H](n2c(-c3ncccc3F)nc3cnc(-n4ccnn4)cc32)C1)c1ccc(Br)s1 [Example 12, 5-bromo-N-((1S,3R)-3-(2-(3-fluoropyridin-2-yl)-6-(1H-1,2,3-triazol-1-yl)-1H-imidazo[4,5-c]pyridin-1-yl)cyclohexyl)thiophene-2-carboxamide] | ≥ 7.00 | > 6.30 | 6.30 to 7.00 |  |
| CC(C)Cc1nc2cnc(-n3nccn3)cc2n1[C@@H]1COC[C@H](NC(=O)c2ccc(Cl)s2)C1 (single isomer, unassigned) [Example 141] | ≥ 7.00 | > 6.30 | ≥ 7.00 |  |
| N#CC1CC(NC(=O)c2ncc(Cl)s2)CC(n2c(-c3ccccc3F)nc3cnc(-c4nc[nH]n4)cc32)C1 (single isomer, unassigned) [Example 451, 5-chloro-N-(3-cyano-5-(2-(2-fluorophenyl)-6-(1H-1,2,4-triazol-3-yl)-1H-imidazo[4,5-c]pyridin-1-yl)cyclohexyl)thiazole-2-carboxamide] | ≥ 7.00 | > 6.30 | 6.30 to 7.00 |  |

Continued, values first:

| pIC50 (BCAT2 [1]) | pIC50 (hBCAT1) | pIC50 (BCAT2 [2]) | BCAT2 Cell Inhibition (BCAT2 [2]) | Structure (SMILES) |
| --- | --- | --- | --- | --- |
| ≥ 7.00 | > 6.30 | ≥ 7.00 |  | O=C(N[C@H]1CCC[C@@H](n2c(-c3ccccc3F)nc3cnc(-c4ncccn4)cc32)[C@@H]1O)c1ncc(Cl)s1 [Example 245, 5-chloro-N-((1S,2R,3R)-3-(2-(2-fluorophenyl)-6-(pyrimidin-2-yl)-1H-imidazo[4,5-c]pyridin-1-yl)-2-hydroxycyclohexyl)thiazole-2-carboxamide] |
| ≥ 7.00 | > 6.30 | ≥ 7.00 |  | O=C(N[C@H]1CCCC[C@@H](n2c(-c3ccccc3F)nc3cnc(-c4nc[nH]n4)cc32)[C@@H]1O)c1ccc(Cl)s1 [Example 405, 5-chloro-N-((1S,2R,3R)-3-(2-(2-fluorophenyl)-6-(1H-1,2,4-triazol-3-yl)-1H-imidazo[4,5-c]pyridin-1-yl)-2-hydroxycycloheptyl)thiophene-2-carboxamide] |
| ≥ 7.00 | < 5.30 | 6.00 to 6.30 |  | O=C(NC1CCCCC(n2c(-c3ccccn3)nc3cnc(-n4nccn4)cc32)C1)c1ncc(C(F)F)s1 (stereo not drawn) [Example 4, 5-(difluoromethyl)-N-(3-(2-(pyridin-2-yl)-6-(2H-1,2,3-triazol-2-yl)-1H-imidazo[4,5-c]pyridin-1-yl)cycloheptyl)thiazole-2-carboxamide] |
| 6.30 to 7.00 | < 5.30 | < 6.00 |  | CC(C)Cc1nc2cnc(-c3nnco3)cc2n1[C@@H]1CCC[C@H](NC(=O)c2ncc(Cl)s2)C1 [Example 380, 5-chloro-N-((1S,3R)-3-(2-isobutyl-6-(1,3,4-oxadiazol-2-yl)-1H-imidazo[4,5-c]pyridin-1-yl)cyclohexyl)thiazole-2-carboxamide] |
| ≥ 7.00 | > 6.30 | ≥ 7.00 |  | O=C(N[C@H]1CCC[C@@H](n2c(CC3(C(F)(F)F)CC3)nc3cnc(-c4nc[nH]n4)cc32)C1)c1ncc(Cl)s1 [Example 325, N-((1S,3R)-3-(6-(1H-1,2,4-triazol-3-yl)-2-((1-(trifluoromethyl)cyclopropyl)methyl)-1H-imidazo[4,5-c]pyridin-1-yl)cyclohexyl)-5-chlorothiazole-2-carboxamide] |
| ≥ 7.00 | > 6.30 | 6.00 to 6.30 |  | CNc1cc2c(cn1)nc(-c1ccccc1F)n2[C@@H]1C[C@@H](O)C[C@H](NC(=O)c2ncc(Cl)s2)C1 [Example 274, 5-chloro-N-((1R,3S,5S)-3-(2-(2-fluorophenyl)-6-(methylamino)-1H-imidazo[4,5-c]pyridin-1-yl)-5-hydroxycyclohexyl)thiazole-2-carboxamide] |
| 6.30 to 7.00 | < 5.30 | < 6.00 |  | CC(Oc1nc2cnc(-n3nccn3)cc2n1[C@@H]1CCC[C@H](NC(=O)c2ncc(C(F)F)s2)C1)C(F)(F)F (stereo partly drawn) [Example 98, N-((1S,3R)-3-(6-(2H-1,2,3-triazol-2-yl)-2-((1,1,1-trifluoropropan-2-yl)oxy)-1H-imidazo[4,5-c]pyridin-1-yl)cyclohexyl)-5-(difluoromethyl)thiazole-2-carboxamide] |

Source: patent publication US20260159512A1, “BCAT2 INHIBITORS” (AGIOS PHARMACEUTICALS, INC., priority 2021, published 2026)
